Results taken from patent US9809562B2, “NAT10 modulators for treating or preventing laminopathies, aging and cancer” (CAMBRIDGE ENTERPRISE LIMITED, priority 2014, dated 2017).

Tested on: normal human fibroblasts
Test: Nuclear shape of normal fibroblasts, with or without FTI
Assay type: cell-based
Text: FIG. 11: Remodelin prevents FTI induced nuclear shape defects in non-progeric cells. A) Analysis of Lamin A/C processing after Remodelin or FTI treatment, showing that Remodelin is not a FTI. B) Representative pictures of Lamin A/C IF staining after the indicated treatments. Arrows indicate FTI induced misshapen nuclei in normal fibroblasts. Scale bar: 50 μm. C) Quantification of misshapen nuclei with the indicated cell lines and inhibitor treatments (means of three independent experiments±s.e.m. n>178). D) Representative pictures of DAPI staining showing effects of FTI and Remodelin on nuclear shape of U2OS cells. Scale bars: 20 μm.
U2OS and SaOS-2 osteosarcoma cells, HeLa cervical cancer cells, A431 melanoma cells, NCI-SNU5 gastric cancer cells, MRC-5 lung fibroblast cells and Werner syndrome patient-derived SV40 fibroblast cells were grown in Dulbecco's modified Eagle medium (DMEM, Sigma-Aldrich) supplemented with 10% fetal bovine serum (BioSera), 2 mM L-glutamine, 100 U per ml penicillin, 100 μg ml^−1 streptomycin. […] Cells were analysed 48 to 72 hours after transfection.
The following KAT and KDAC inhibitors were used in the nuclear shape rescue screen, incubating cells with the molecules for 16 hours: trichostatin A (1 μM), sodium butyrate (5 mM), tubacin (10 μM), SAHA (5 μM), curcumin (10 μM), garcinol (50 μM), anacardic acid (1 μM), MB-3 (5 μM), 4-(4-chlorophenyl)-2-(2-cyclopentylidenehydrazinyl)thiazole (Compound 2) (50 μM), 4-(4-chlorophenyl)-2-(2-cyclopentylidene-1-(prop-2-yn-1-yl)hydrazinyl)thiazole (Compound 3) (50 μM) and cyclopentylidene-[4-(4-cyanophenyl)thiazol-2-yl)hydrazine (Compound 1) (Remodelin) (10 to 50 μM). […] Senescence was assessed after 8 days of Remodelin treatment when cells were at Population Doubling 12, and then after several weeks of Remodelin treatment, when cells reached Population Doubling 24 using the Senescence β-Galactosidase Staining Kit #9860 from Cell Signaling. […]

SMILES: N#Cc1ccc(-c2csc(NN=C3CCCC3)n2)cc1 [Compound 1, 4-(4-Cyanophenyl)-2-(2-cyclopentylidenehydrazinyl)thiazole]
- nuclear shape of normal cells (cells that do not express Progerin): did not induce nuclear shape defects in normal human fibroblasts
- FTI-induced nuclear shape defects (normal fibroblasts co-treated with FTI): prevented FTI-induced nuclear shape defects
